Assay results from patent US20020137929A1, “1 - (3-heterocyclylphenyl) isothiourea, -isourea, -guanidine and -amidine herbicidal agents” (Intellectual Property Department, BASF Aktiengesellschaft, priority 1998, published 2002).

What was measured:
[1] = test system: CASOB (Sicklepod); test: Postemergence herbicidal evaluation; assay type: in vivo, Cassia obtusifolia; conditions: postemergence
Procedure, shortened: (§1)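 Two-week-old seedlings sprayed with compound in 50/50 acetone/water plus 0.5% TWEEN 20, at about 0.0156 to 0.500 kg/ha, nozzle at 40 psi. Kept in greenhouse; rated visually 4-5 weeks after treatment on a 0-9 scale versus control, repeat tests averaged.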

[2] = test system: GALAP (Galium); test: Postemergence herbicidal evaluation; assay type: in vivo, Galium aparine; conditions: postemergence
Procedure, shortened: as §1

[3] = test system: ZEAMX (Corn, Field); test: Postemergence herbicidal evaluation; assay type: in vivo, Zea mays; conditions: postemergence
Procedure, shortened: as §1

[4] = test system: AMBEL (Ragweed, Common); test: Preemergence herbicidal evaluation; assay type: in vivo, Ambrosia artemisifolia; conditions: preemergence, rated 4-5 weeks after treatment, 0-9 scale
Procedure, shortened: (§2)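 Scores use a 0–9 visual scale covering stand, vigor, malformation, size and chlorosis relative to controls, rated four to five weeks after treatment. Before emergence, soil-planted seeds were sprayed with compound in aqueous acetone at roughly 0.0156–0.500 kg/ha and held in the greenhouse.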

[5] = test system: CHEAL (Lambsquarters, Common); test: Preemergence herbicidal evaluation; assay type: in vivo, Chenopodium album; conditions: preemergence, rated 4-5 weeks after treatment, 0-9 scale
Procedure, shortened: as §2

[6] = test system: IPOHE (Morningglory, Ivyleaf); test: Preemergence herbicidal evaluation; assay type: in vivo, Ipomoea hederacea; conditions: preemergence, rated 4-5 weeks after treatment, 0-9 scale
Procedure, shortened: as §2

[7] = test system: ORYSAT (Rice, Tebonnet); test: Preemergence herbicidal evaluation; assay type: in vivo, Oryza sativa, (L.) Tebonnet; conditions: preemergence, rated 4-5 weeks after treatment, 0-9 scale
Procedure, shortened: as §2

[8] = test system: TRZAWR (Wheat, Winter, cv Riband); test: Preemergence herbicidal evaluation; assay type: in vivo, Triticum aestivum; conditions: preemergence, rated 4-5 weeks after treatment, 0-9 scale
Procedure, shortened: as §2

[9] = test system: ZEAMX (Corn, Field); test: Preemergence herbicidal evaluation; assay type: in vivo, Zea mays; conditions: preemergence, rated 4-5 weeks after treatment, 0-9 scale
Procedure, shortened: as §2

[10] = test system: ECHORC (Watergrass (Calif.)); test: Preemergence weed control under flooded paddy conditions; assay type: in vivo, Echinochloa oryzoides; conditions: rated 3-4 weeks after treatment
Procedure, shortened: (§3)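 First, seeds or propagules go into the top 0.5 cm of silt loam; next, water is held 1.5 to 3 cm over the soil; then compound (50/50 acetone/water) is pipetted into it at about 0.0313 to 0.500 kg/ha; finally plants are rated visually 0-9 after three to four weeks.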

[11] = test system: CYPIR (Rice Flatsedge); test: as above; assay type: in vivo, Cyperus iria; conditions: rated 3-4 weeks after treatment
Procedure, shortened: as §3

[12] = test system: CYPSE (Flatsedge); test: as above; assay type: in vivo, Cyperus serotinus; conditions: rated 3-4 weeks after treatment
Procedure, shortened: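 Ratings on a 0-9 visual scale cover stand, vigor, malformation, size, chlorosis and overall appearance relative to a control, taken three to four weeks post-treatment. Application was into flood water over freshly sown silt loam at roughly 0.0313 to 0.500 kg/ha.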

[13] = test system: ECHORC (Watergrass (Calif.)); test: Postemergence weed control under flooded paddy conditions; assay type: in vivo, Echinochloa oryzoides; conditions: postemergence weeds, rated 3 to 4 weeks after treatment
Procedure, shortened: (§4)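 Injury ratings (0–9 scale covering stand, vigor, malformation, size, chlorosis and overall appearance versus control) were made three to four weeks after treatment. Test material, about 0.0313 to 0.500 kg/ha a.i. in 50/50 v/v aqueous/acetone, was added to flood water 1.5 to 3 cm deep over 3 to 5 cm weeds and 1.5 to 2.5 leaf rice.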

[14] = test system: CYPSE (Flatsedge); test: as above; assay type: in vivo, Cyperus serotinus; conditions: postemergence weeds, rated 3 to 4 weeks after treatment
Procedure, shortened: as §4

`COC(=O)CC1SC(=Nc2cc(-n3c(=O)cc(C(F)(F)F)n(C)c3=O)c(F)cc2Cl)N(C)C1=O` (stereo not shown) [Compound 88, Methyl 2-{{2-chloro-5-[3,6-dihydro-3-methyl-2,6-dioxo-4-(trifluoromethyl)-1(2H)-pyrimidinyl]-4-fluorophenyl}imino}-3-methyl-4-oxo-5-thiazolidineacetate] was tested, and the CASOB herbicidal rating ([1]; rate 0.0158 kg/ha) was 0.0, the CASOB herbicidal rating ([1]; rate 0.0315 kg/ha) was 3.0 and the CASOB herbicidal rating ([1]; rate 0.0630 kg/ha) was 3.0. For the same compound, the GALAP herbicidal rating ([2]; rate 0.0158 kg/ha) was 4.0, the GALAP herbicidal rating ([2]; rate 0.0315 kg/ha) was 4.0 and the GALAP herbicidal rating ([2]; rate 0.0630 kg/ha) was 4.0. It also gave a ZEAMX herbicidal rating ([3]; rate 0.0158 kg/ha) of 7.5, a ZEAMX herbicidal rating ([3]; rate 0.0315 kg/ha) of 8.5 and a ZEAMX herbicidal rating ([3]; rate 0.0630 kg/ha) of 9.0. For the same compound, the AMBEL rating ([4]; 0.0156 kg/ha) was 0.0, the AMBEL rating ([4]; 0.0313 kg/ha) was 0.0 and the AMBEL rating ([4]; 0.0625 kg/ha) was 7.0. It also gave an AMBEL rating ([4]; 0.1250 kg/ha) of 9.0, an AMBEL rating ([4]; 0.2500 kg/ha) of 9.0 and a CHEAL rating ([5]; 0.0156 kg/ha) of 7.0. It also gave a CHEAL rating ([5]; 0.0313 kg/ha) of 9.0, a CHEAL rating ([5]; 0.0625 kg/ha) of 9.0 and a CHEAL rating ([5]; 0.1250 kg/ha) of 9.0. The CHEAL rating ([5]; 0.2500 kg/ha) was 9.0, the IPOHE rating ([6]; 0.0156 kg/ha) was 0.0 and the IPOHE rating ([6]; 0.0313 kg/ha) was 0.0. It also gave an IPOHE rating ([6]; 0.0625 kg/ha) of 0.0, an IPOHE rating ([6]; 0.1250 kg/ha) of 9.0 and an IPOHE rating ([6]; 0.2500 kg/ha) of 9.0. For the same compound, the ORYSAT rating ([7]; 0.0156 kg/ha) was 0.0, the ORYSAT rating ([7]; 0.0313 kg/ha) was 0.0 and the ORYSAT rating ([7]; 0.0625 kg/ha) was 0.0. For the same compound, the ORYSAT rating ([7]; 0.1250 kg/ha) was 2.0, the ORYSAT rating ([7]; 0.2500 kg/ha) was 7.0 and the TRZAWR rating ([8]; 0.0156 kg/ha) was 0.0. The TRZAWR rating ([8]; 0.0313 kg/ha) was 0.0, the TRZAWR rating ([8]; 0.0625 kg/ha) was 0.0 and the TRZAWR rating ([8]; 0.1250 kg/ha) was 3.0. It also gave a TRZAWR rating ([8]; 0.2500 kg/ha) of 9.0, a ZEAMX rating ([9]; 0.0156 kg/ha) of 0.0 and a ZEAMX rating ([9]; 0.0313 kg/ha) of 0.0. It also gave a ZEAMX rating ([9]; 0.0625 kg/ha) of 0.0, a ZEAMX rating ([9]; 0.1250 kg/ha) of 6.0 and a ZEAMX rating ([9]; 0.2500 kg/ha) of 8.0. For the same compound, the “ECHORC herbicidal effect rating” value ([10]; 0.0313 kg/ha) was 6.0, the “ECHORC herbicidal effect rating” value ([10]; 0.0625 kg/ha) was 6.0 and the “ECHORC herbicidal effect rating” value ([10]; 0.1250 kg/ha) was 6.0. The “ECHORC herbicidal effect rating” value ([10]; 0.2500 kg/ha) was 7.0, the “CYPIR herbicidal effect rating” value ([11]; 0.0313 kg/ha) was 0.0 and the “CYPIR herbicidal effect rating” value ([11]; 0.0625 kg/ha) was 0.0. The “CYPIR herbicidal effect rating” value ([11]; 0.1250 kg/ha) was 0.0, the “CYPIR herbicidal effect rating” value ([11]; 0.2500 kg/ha) was 0.0 and the “CYPSE herbicidal effect rating” value ([12]; 0.0313 kg/ha) was 3.0. For the same compound, the “CYPSE herbicidal effect rating” value ([12]; 0.0625 kg/ha) was 5.0, the “CYPSE herbicidal effect rating” value ([12]; 0.1250 kg/ha) was 7.0 and the “CYPSE herbicidal effect rating” value ([12]; 0.2500 kg/ha) was 7.0. The “Herbicidal rating ECHORC” value ([13]; Rate 0.0313 kg/ha) was 6.0, the “Herbicidal rating ECHORC” value ([13]; Rate 0.0625 kg/ha) was 6.0 and the “Herbicidal rating ECHORC” value ([13]; Rate 0.1250 kg/ha) was 6.0. The “Herbicidal rating ECHORC” value ([13]; Rate 0.2500 kg/ha) was 7.0, the “Herbicidal rating CYPSE” value ([14]; Rate 0.0313 kg/ha) was 3.0 and the “Herbicidal rating CYPSE” value ([14]; Rate 0.0625 kg/ha) was 5.0. The “Herbicidal rating CYPSE” value ([14]; Rate 0.1250 kg/ha) was 7.0 and the “Herbicidal rating CYPSE” value ([14]; Rate 0.2500 kg/ha) was 7.0.

Work on `CN1C(=O)C(CC(N)=O)SC1=Nc1cc(-n2c(=O)cc(C(F)(F)F)n(C)c2=O)c(F)cc1Cl` (stereo not shown) [Compound 92, 2-{{2-Chloro-5-[3,6-dihydro-3-methyl-2,6-dioxo-4-(trifluoromethyl)-1(2H)-pyrimidinyl]-4-fluorophenyl}imino}-3-methyl-4-oxo-5-thiazolidineacetamide] yielded a CASOB herbicidal rating ([1]; rate 0.0158 kg/ha) of 3.0, a CASOB herbicidal rating ([1]; rate 0.0315 kg/ha) of 5.0 and a CASOB herbicidal rating ([1]; rate 0.0630 kg/ha) of 9.0. For the same compound, the GALAP herbicidal rating ([2]; rate 0.0158 kg/ha) was 0.0, the GALAP herbicidal rating ([2]; rate 0.0315 kg/ha) was 3.0 and the GALAP herbicidal rating ([2]; rate 0.0630 kg/ha) was 4.0. It also gave a ZEAMX herbicidal rating ([3]; rate 0.0158 kg/ha) of 6.0, a ZEAMX herbicidal rating ([3]; rate 0.0315 kg/ha) of 7.5 and a ZEAMX herbicidal rating ([3]; rate 0.0630 kg/ha) of 8.0. For the same compound, the AMBEL rating ([4]; 0.0156 kg/ha) was 0.0, the AMBEL rating ([4]; 0.0313 kg/ha) was 0.0 and the AMBEL rating ([4]; 0.0625 kg/ha) was 0.0. For the same compound, the AMBEL rating ([4]; 0.1250 kg/ha) was 5.0, the AMBEL rating ([4]; 0.2500 kg/ha) was 9.0 and the CHEAL rating ([5]; 0.0156 kg/ha) was 9.0. For the same compound, the CHEAL rating ([5]; 0.0313 kg/ha) was 9.0, the CHEAL rating ([5]; 0.0625 kg/ha) was 9.0 and the CHEAL rating ([5]; 0.1250 kg/ha) was 9.0. The CHEAL rating ([5]; 0.2500 kg/ha) was 9.0, the IPOHE rating ([6]; 0.0156 kg/ha) was 0.0 and the IPOHE rating ([6]; 0.0313 kg/ha) was 0.0. The IPOHE rating ([6]; 0.0625 kg/ha) was 0.0, the IPOHE rating ([6]; 0.1250 kg/ha) was 9.0 and the IPOHE rating ([6]; 0.2500 kg/ha) was 9.0. It also gave an ORYSAT rating ([7]; 0.0156 kg/ha) of 0.0, an ORYSAT rating ([7]; 0.0313 kg/ha) of 0.0 and an ORYSAT rating ([7]; 0.0625 kg/ha) of 0.0. For the same compound, the ORYSAT rating ([7]; 0.1250 kg/ha) was 0.0, the ORYSAT rating ([7]; 0.2500 kg/ha) was 5.0 and the TRZAWR rating ([8]; 0.0156 kg/ha) was 0.0. It also gave a TRZAWR rating ([8]; 0.0313 kg/ha) of 0.0, a TRZAWR rating ([8]; 0.0625 kg/ha) of 0.0 and a TRZAWR rating ([8]; 0.1250 kg/ha) of 0.0. It also gave a TRZAWR rating ([8]; 0.2500 kg/ha) of 2.0, a ZEAMX rating ([9]; 0.0156 kg/ha) of 0.0 and a ZEAMX rating ([9]; 0.0313 kg/ha) of 0.0. It also gave a ZEAMX rating ([9]; 0.0625 kg/ha) of 0.0, a ZEAMX rating ([9]; 0.1250 kg/ha) of 0.0 and a ZEAMX rating ([9]; 0.2500 kg/ha) of 6.0. The “ECHORC herbicidal effect rating” value ([10]; 0.0313 kg/ha) was 0.0, the “ECHORC herbicidal effect rating” value ([10]; 0.0625 kg/ha) was 0.0 and the “ECHORC herbicidal effect rating” value ([10]; 0.1250 kg/ha) was 2.0. The “ECHORC herbicidal effect rating” value ([10]; 0.2500 kg/ha) was 3.0, the “CYPIR herbicidal effect rating” value ([11]; 0.0313 kg/ha) was 3.0 and the “CYPIR herbicidal effect rating” value ([11]; 0.0625 kg/ha) was 3.0. The “CYPIR herbicidal effect rating” value ([11]; 0.1250 kg/ha) was 5.0, the “CYPIR herbicidal effect rating” value ([11]; 0.2500 kg/ha) was 7.0 and the “CYPSE herbicidal effect rating” value ([12]; 0.0313 kg/ha) was 9.0. For the same compound, the “CYPSE herbicidal effect rating” value ([12]; 0.0625 kg/ha) was 9.0, the “CYPSE herbicidal effect rating” value ([12]; 0.1250 kg/ha) was 9.0 and the “CYPSE herbicidal effect rating” value ([12]; 0.2500 kg/ha) was 9.0. For the same compound, the “Herbicidal rating ECHORC” value ([13]; Rate 0.0313 kg/ha) was 0.0, the “Herbicidal rating ECHORC” value ([13]; Rate 0.0625 kg/ha) was 0.0 and the “Herbicidal rating ECHORC” value ([13]; Rate 0.1250 kg/ha) was 2.0. For the same compound, the “Herbicidal rating ECHORC” value ([13]; Rate 0.2500 kg/ha) was 3.0, the “Herbicidal rating CYPSE” value ([14]; Rate 0.0313 kg/ha) was 9.0 and the “Herbicidal rating CYPSE” value ([14]; Rate 0.0625 kg/ha) was 9.0. For the same compound, the “Herbicidal rating CYPSE” value ([14]; Rate 0.1250 kg/ha) was 9.0 and the “Herbicidal rating CYPSE” value ([14]; Rate 0.2500 kg/ha) was 9.0.
